Source: article PMC7415810, “A novel nucleolin-binding peptide for Cancer Theranostics” (Theranostics, 2020)

Key:
[1] = Release of PTX in vitro (linker hydrolysis) in human serum; format: in vitro ADME; conditions: 100 μM stock diluted 10-fold in 100% human serum, 37 °C, HPLC, triplicate
Description: (§1) Stock solutions of AGM-330-PTX (100 μM) were diluted 10-fold with pre-warmed 100% human serum (Sigma-Aldrich) or PBS and incubated at 37 °C for 0, 1, 2, 6 and 12 h. […] Each experiment was performed in triplicate.
(§2) Figure S10. A, B, Changes in the HPLC chromatogram of AGM-330-PTX after incubation with human serum (A) or PBS (B). C, D, MS spectra of AGM-330-PTX (C) and AGM-330 (D). E, Time-dependent fluorescence imaging of AGM-330-PTX-Rh in MDA-MB-231 cells. Cells were incubated with 5 μmol/l AGM-330-PTX-Rh. […]
(§3) bit secondary antibody coupled to Alexa Fluor 488. Cells were then fixed with 4 % paraformaldehyde, and the nuclei were stained with DAPI. MERGE represents a merged image of AGM-330, PTX, and nuclear staining by […]

[2] = Release of PTX in vitro (linker hydrolysis) in PBS; format: physicochemical; conditions: 100 μM stock diluted 10-fold in PBS, 37 °C, HPLC, triplicate
Description: as §1, §2, §3

[3] = tested on: MDA-MB-231-luc xenograft; experiment: Tumorigenesis experiment, MDA-MB-231-luc breast cancer xenograft
Description: All animal experiments were performed in accordance with IACUC guidelines (GIST-2019-040). For tumorigenesis experiments, anesthetized 6-week-old female NOD-scid Il2rg^-^/^- mice (NPG^TM, VITALSTAR) were inoculated in the mammary fat pad with 1 × 10^6 MDA-MB-231-luc cells in a 100 μl volume (n = 5 for each group). After tumor cell inoculation, when the tumor volume reached approximately 100 mm^3, the mice were randomly divided into the following five groups: (i) control, (ii) low-dose paclitaxel (2 mg/kg), (iii) high-dose paclitaxel (10 mg/kg), (iv) AGM-330 (16.68 mg/kg, molar equivalent to 2 mg/kg of PTX), and (v) AGM-330-PTX (19.05 mg/kg, molar equivalent to 2 mg/kg of PTX). The tumor size was measured twice a week, and the tumor volume was calculated with the following formula: volume (mm^3) = [length (mm)] × [width (mm)]^2 × 0.5. For the bioluminescent imaging experiment, D-luciferin (150 mg/kg; PerkinElmer) was intraperitoneally injected into each mouse, and an IVIS 100 imaging system (Xenogen, Corporation, Alameda, CA) was used for bioluminescent monitoring. Mice were anesthetized with vaporized isofurane (BK Pharm, Ilsan, Korea) and placed in an imaging chamber. After 10 min, each animal was imaged with an exposure time of 1 min. All bioluminescent image data were obtained using Living Image software (version 4.5.2, PerkinElmer). Photons detected from tumors were converted to average radiance values (photon/sec/cm^2/sr), which are quantitative data obtained from a region of […] (ROI) and include the photons emitted by bioluminescent cells from an assigned rectangular area over the whole body of each mouse.
A, Cell proliferation inhibition by AGM-330-PTX treatment was determined for 48 h by the WST assay in multiple breast and colorectal cancer cells and in normal cells. B, Schematic representation of the experimental protocol as described in the materials and methods section. Anesthetized 6‑week-old […] NPG mice were inoculated with a 1:1 mix of Matrigel and 1 × 10^6 MDA-MB-231-luc cells into the mammary fat pad. When the volume of primary tumors reached approximately 100 mm^3, tumor-bearing mice were treated with vehicle (PBS), PTX (2 or 10 mg/kg), AGM-330 (16.68 mg/kg, molar equivalent to 2 mg/kg of PTX), or AGM-330-PTX (19.05 mg/kg, molar equivalent to 2 mg/kg of PTX; n = 5/group). C-E, The therapeutic effect of AGM-330-PTX was evaluated in breast cancer xenograft models. C, Primary tumor volume was measured twice a week until the day of sacrifice. The primary tumor volume was calculated by the formula volume (mm^3) = (length (mm)) × (width (mm))^2 × 0.5. D, On the day of sacrifice, all primary tumors were isolated, and (E) the primary tumor weights were evaluated. F-I, Immunohistochemistry (IHC) sections of representative tumors with Ki-67 (F,H) and TUNEL (G,I) staining. Nuclei were stained with DAPI (blue). Scale bar, 50 µm. Bar graphs represent the mean ± SD, and statistical analyses were performed by one-way ANOVA with Dunnett's multiple comparison. *, **, and *** indicate P < 0.05, P < 0.01, and P < 0.001, respectively.
Following in vitro proliferation analysis on cancer lines, we investigated whether AGM-330-PTX could be a potential therapeutic agent in vivo. We inoculated MDA-MB-231-luc cells into the mammary fat pad of NPG mice. After the […] tumors grew to 100 mm^3, comparative efficacy studies were performed by dividing the animals into five groups (n = 5/group) treated with vehicle (PBS), PTX (2 or 10 mg/kg, respectively), AGM-330 (16.68 mg/kg, molar equivalent to 2 mg/kg of PTX), or AGM-330-PTX (19.05 mg/kg, molar equivalent to 2 mg/kg of PTX) twice a week by tail vein injection (Figure 5B). Tumor growth was monitored by measuring volumes twice a week with a caliber rule over the course of 3 weeks.
Figure S11. A-E, NPG TM mice bearing MDA-MB-231-luc tumors were treated twice a week for 21 days with […]

[4] = tested on: MDA-MB-231 cells; experiment: Time-dependent binding/internalization of AGM-330-FITC, confocal microscopy; format: cell-based, human; conditions: 5 μmol/l, 37 °C, 1, 3, 6 and 12 h, confocal fluorescence
Description: We evaluated the specificity of AGM-330 to NCL with cell binding assays against different cell lines using fluorescence microscopy. The experiment was performed using multiple cancer cell lines, MCF-7, MDA-MB-231, HT-29, and HCT-116, and normal cell lines, MCF-10A, and CCD-18Co. The binding specificity was determined by confocal imaging after 1 h of incubation of the cells with 5 μmol/l AGM-330-FITC. The cells were incubated with DAPI to counterstain the nuclei (blue fluorescence). […] To evaluate the ability of AGM-330 to undergo NCL-mediated endocytosis, MDA-MB-231 cells were incubated with AGM-330-FITC at 37 °C for different times (1, 3, 6 and 12 h). […] As mentioned in a previous study, N6L is essentially built on a lysine-rich helicoid template formed by a repeat of 6 tripeptide units. […] Therefore, the difference in the molecular structure between AGM-330 and N6L may be caused by different endocytosis mechanisms. […] However, except for membrane NCL, we could not confirm the protein associated with internalization among the proteins bound to AGM-330 (Figure 2D). Taken together, N6L, which binds to both membrane NCL and nucleophosmin, induce apoptosis after internalization into nucleolus of cancer cells.
Figure S6. Time-dependent in vitro binding assay of AGM-330-FITC toward cancer cells. MDA-MB-231 cells were incubated with 5 μmol/l AGM-330-FITC for 1, 3, 6 and 12 h at 37 °C. […]

[5] = tested on: cancer cells (MCF-7, MDA-MB-231, HT-29, HCT-116); experiment: Flow cytometry binding of FITC-labeled peptide; format: cell-based, human; conditions: 1 × 10^5 cells, 2 h at 37 °C, serum-free medium
Description: (§4) Fluorescence-activated cell-sorting (FACS) analysis was used to check the binding of the FITC labeled peptides (FITC-peptide). The stock solution for the FITC-peptides (100 μM) was prepared by dissolving the peptide in PBS. MCF-10A, MCF-7, MDA-MB-231, CCD-18Co, HT-29, and HCT-116 cells were seeded in 6-well plates (10^5 cells/well) containing 3 ml of medium, and the plates were then incubated at 37 °C overnight. […] Thereafter, the medium was removed, and the cells were washed with cold PBS to remove any remaining peptide. Adequate trypsin/EDTA was added to each well, which was followed by a 3 ~ 5 min incubation at 37 °C. Trypsin/EDTA was immediately neutralized by adding medium, and the cell suspension was then transferred into centrifuge tubes. The cells were separated and washed twice with PBS. […] The prepared cells were analyzed on a FACScanto II (BD Biosciences, San Jose, CA, USA) flow cytometer, and the FACS data were analyzed using FlowJo (TreeStar, Ashland, OR, USA).
(§5) Next, to examine whether the MAP ligand can selectively bind to cancer cells, cancer cells treated with FITC-labeled AGM-330 (AGM-330-FITC) were compared with untreated cells. […] Then, the inherent fluorescence of peptide-treated cells were compared and measured based on changes in the mean fluorescence intensity (MFI) values compared to those of untreated cells (Figure 1D and E).

[6] = tested on: normal cells (MCF-10A, CCD-18Co); experiment: Flow cytometry binding of FITC-labeled peptide; format: cell-based, human; conditions: 1 × 10^5 cells, 2 h at 37 °C, serum-free medium
Description: as §4, §5

[7] = AGM-330-PTX treatment, xenograft

Molecule | hydrolysis of the propionic acid linker (release of PTX) in serum [1] | hydrolysis of the propionic acid linker (release of PTX) in PBS [2] | average tumor volume ([3]; 19.05 mg/kg (molar equivalent to 2 mg/kg of PTX), tail vein twice a week, day 21, n = 5) | final average tumor weight ([3]; 19.05 mg/kg (molar equivalent to 2 mg/kg of PTX), tail vein twice a week, n = 5) | blood chemistry analysis (ALB, GOT, GPT, TP-PS, UA in serum) ([3]; 19.05 mg/kg twice a week for 21 days, n = 5) | mouse body weight versus vehicle (PBS) ([3]; 19.05 mg/kg twice a week, 3 weeks, n = 5) | histology of excised tumors (H&E, Ki-67, TUNEL) ([3]; 19.05 mg/kg twice a week, excised tumors) | decrease of average tumor volume with respect to the same dose PTX ([3]; 19.05 mg/kg versus PTX 2 mg/kg, n = 5) | decrease in tumor volume compared with the PBS-treated group [3, 7] | decrease in tumor weight compared with the PBS-treated group [3, 7] | cellular uptake / internalization [4] | binding to cancer cells (MFI relative to untreated cells) [5] | binding to normal cells (MFI) [6]
CSCC[C@H](NC(=O)[C@H](C)NC(=O)CNC(=O)[C@H](Cc1c[nH]cn1)NC(=O)[C@@H](N)CCCNC(=N)N)C(=O)N[C@H](C(=O)N[C@@H](Cc1ccc(O)cc1)C(=O)N[C@@H](CC(C)C)C(=O)N[C@@H](CCCCN)C(=O)NCCOCCOCCOCCOCCOCCOCCOCCOCCOCCOCCOCCOCCC(=O)NCCCC[C@H](NC(=O)CCOCCOCCOCCOCCOCCOCCOCCOCCOCCOCCOCCOCCNC(=O)[C@H](CCCCN)NC(=O)[C@H](CC(C)C)NC(=O)[C@H](Cc1ccc(O)cc1)NC(=O)[C@@H](NC(=O)[C@H](CCSC)NC(=O)[C@H](C)NC(=O)CNC(=O)[C@H](Cc1c[nH]cn1)NC(=O)[C@@H](N)CCCNC(=N)N)C(C)C)C(=O)NCCCC[C@H](NC(=O)[C@H](CCCCNC(=O)CCOCCOCCOCCOCCOCCOCCOCCOCCOCCOCCOCCOCCNC(=O)[C@H](CCCCN)NC(=O)[C@H](CC(C)C)NC(=O)[C@H](Cc1ccc(O)cc1)NC(=O)[C@@H](NC(=O)[C@H](CCSC)NC(=O)[C@H](C)NC(=O)CNC(=O)[C@H](Cc1c[nH]cn1)NC(=O)[C@@H](N)CCCNC(=N)N)C(C)C)NC(=O)CCOCCOCCOCCOCCOCCOCCOCCOCCOCCOCCOCCOCCNC(=O)[C@H](CCCCN)NC(=O)[C@H](CC(C)C)NC(=O)[C@H](Cc1ccc(O)cc1)NC(=O)[C@@H](NC(=O)[C@H](CCSC)NC(=O)[C@H](C)NC(=O)CNC(=O)[C@H](Cc1c[nH]cn1)NC(=O)[C@@H](N)CCCNC(=N)N)C(C)C)C(=O)N[C@@H](CSC1CC(=O)N(CCC(=O)O[C@@H](C(=O)O[C@H]2C[C@@]3(O)[C@@H](OC(=O)c4ccccc4)[C@@H]4[C@]5(OC(C)=O)CO[C@@H]5C[C@H](O)[C@@]4(C)C(=O)[C@H](OC(C)=O)C(=C2C)C3(C)C)[C@@H](NC(=O)c2ccccc2)c2ccccc2)C1=O)C(=O)O)C(C)C (stereo partly shown) [AGM-330-PTX] | almost completely hydrolyzed after 2 h | fully hydrolyzed in PBS after 12 h | 807 ± 90 mm^3 | 1.3 ± 0.1 g | no adverse signs of toxicity | not affected | a reduction in the number of cancerous cells and an increase in apoptotic cell nuclei | approximately 52% | 63% | 43% |  |  | 
AGM-330-FITC (RHGAMVYLK; PEG12 after the C-terminal Lys of each RHGAMVYLK arm, joined to a trilysine core; FITC (by FITC-5-maleimide)) |  |  |  |  |  |  |  |  |  |  | not taken up by the cytoplasm or nucleolus | significant cancer cell binding | significant decrease in binding to normal cells
